Values joined by “and” are separate entries in the source; they are usually repeats but may differ in a detail not shown here. Equal entries are not always repeated. Structures can show the parent of a compound that is named as a salt. Where two headings read alike, the source gives them in different places.
Columns and labels:
[1] = system: erythroid progenitor cells (EPCs); assay: Fetal hemoglobin (HbF) ELISA in day 7 erythroid progenitor cells; type: cell-based, human; conditions: Homo sapiens, Erythroid progenitor cell, HbF ELISA, day 7 EPCs, 5 days; read-out: EPC ELISA (pEC50 category) (converted);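 also: for fetal hemoglobin induction normalized to vehicle-treated cells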
In short: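 Day 7 EPCs from human bone marrow CD34+ cells were plated at 1,000 cells/well in media with 3 U/mL rhEPO. They were exposed to a 22-point dilution ([…]) for 5 days at 37 °C. Lysate HbF was measured by sandwich ELISA (OD450) and normalized to DMSO control wells.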

DNMT1 = DNMT1 (Homo sapiens, UniProt P26358); assay: DNMT1 biochemical activity, breaklight assay and/or SPA assay
[2] = binned activity in either the breaklight or the SPA assay
[3] = breaklight assay and/or SPA assay, repeated experimental runs, read-out: average pIC50 against DNMT1 (converted)
[4] = binned activity in either the breaklight or the SPA assay, read-out: DNMT1 BioChemical (pIC50 category) (converted)

DNMT1, sequence (P26358 whole entry, looked up): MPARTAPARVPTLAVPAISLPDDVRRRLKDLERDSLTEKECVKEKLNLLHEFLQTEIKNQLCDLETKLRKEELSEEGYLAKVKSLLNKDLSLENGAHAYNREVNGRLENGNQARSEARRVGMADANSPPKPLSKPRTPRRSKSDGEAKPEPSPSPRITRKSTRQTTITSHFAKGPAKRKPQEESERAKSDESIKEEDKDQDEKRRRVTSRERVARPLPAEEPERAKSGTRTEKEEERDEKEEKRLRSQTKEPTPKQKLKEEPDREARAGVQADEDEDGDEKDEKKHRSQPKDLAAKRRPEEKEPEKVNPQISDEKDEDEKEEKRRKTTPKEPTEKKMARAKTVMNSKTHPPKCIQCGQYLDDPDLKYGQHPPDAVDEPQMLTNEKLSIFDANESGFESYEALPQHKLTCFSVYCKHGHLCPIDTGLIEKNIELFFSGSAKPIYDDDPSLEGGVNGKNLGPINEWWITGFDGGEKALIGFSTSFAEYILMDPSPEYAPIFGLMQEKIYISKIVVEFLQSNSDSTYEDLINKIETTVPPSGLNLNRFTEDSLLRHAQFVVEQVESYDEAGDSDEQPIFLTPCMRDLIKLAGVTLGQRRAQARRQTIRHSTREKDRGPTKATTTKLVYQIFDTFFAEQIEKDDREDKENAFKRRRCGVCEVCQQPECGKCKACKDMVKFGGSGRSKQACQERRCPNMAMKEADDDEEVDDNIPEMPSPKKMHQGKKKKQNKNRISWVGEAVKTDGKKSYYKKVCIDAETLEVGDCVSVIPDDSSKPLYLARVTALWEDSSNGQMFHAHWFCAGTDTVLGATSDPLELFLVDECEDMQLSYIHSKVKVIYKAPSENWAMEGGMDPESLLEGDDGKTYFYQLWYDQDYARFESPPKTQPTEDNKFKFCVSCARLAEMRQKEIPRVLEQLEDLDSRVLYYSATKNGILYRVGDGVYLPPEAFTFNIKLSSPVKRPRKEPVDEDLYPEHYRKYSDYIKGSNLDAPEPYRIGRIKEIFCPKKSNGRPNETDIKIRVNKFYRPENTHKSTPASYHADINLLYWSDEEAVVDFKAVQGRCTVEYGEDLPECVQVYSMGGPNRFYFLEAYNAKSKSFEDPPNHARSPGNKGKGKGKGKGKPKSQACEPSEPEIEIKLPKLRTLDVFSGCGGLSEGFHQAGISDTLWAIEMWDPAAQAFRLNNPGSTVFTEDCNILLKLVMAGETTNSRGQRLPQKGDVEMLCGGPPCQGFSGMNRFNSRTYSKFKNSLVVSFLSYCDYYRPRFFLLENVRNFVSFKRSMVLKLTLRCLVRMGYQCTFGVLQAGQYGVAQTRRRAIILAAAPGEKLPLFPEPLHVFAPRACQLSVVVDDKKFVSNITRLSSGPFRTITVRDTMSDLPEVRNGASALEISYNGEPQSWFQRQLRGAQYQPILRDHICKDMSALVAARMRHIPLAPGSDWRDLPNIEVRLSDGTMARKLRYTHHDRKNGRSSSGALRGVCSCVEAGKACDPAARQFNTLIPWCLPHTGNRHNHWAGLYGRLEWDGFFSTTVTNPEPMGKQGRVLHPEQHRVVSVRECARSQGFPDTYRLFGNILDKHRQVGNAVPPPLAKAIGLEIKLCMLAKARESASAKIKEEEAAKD

EC50 [1]	DNMT1 BioChemical (pIC50 category) (DNMT1; [2])	average pIC50 against DNMT1 (DNMT1; breaklight assay and/or SPA assay, repeated experimental runs)	SMILES	IC50 (DNMT1; [3])	IC50 (DNMT1; [4])
< 316 nM	D (Category D: ≥6.5)	–	CCc1c(C#N)c(SC(C(N)=O)c2ccccc2)nc(N(C)CCN2CC[C@@H](N(C)C)C2)c1C#N (stereo partly drawn) [Example 516, 2-((3,5-dicyano-6-((2-((R)-3-(dimethylamino)pyrrolidin-1-yl)ethyl)(methyl)amino)-4-ethylpyridin-2-yl)thio)-2-phenylacetamide]	–	–
< 316 nM	D (Category D: ≥6.5)	–	CCc1c(C#N)c(SC(C(N)=O)c2ccccc2)nc(N(C)CCN2CC[C@H](N(C)C)C2)c1C#N (stereo partly drawn) [Example 517, 2-((3,5-dicyano-6-((2-((S)-3-(dimethylamino)pyrrolidin-1-yl)ethyl)(methyl)amino)-4-ethylpyridin-2-yl)thio)-2-phenylacetamide]	–	–
< 316 nM	D (Category D: ≥6.5)	–	CCc1c(C#N)c(SCc2ccc(CNC(=O)CN)cc2)nc(N(C)CCN(CC)CC)c1C#N [Example 520, 2-amino-N-(4-(((3,5-dicyano-6-((2-(diethylamino)ethyl)(methyl)amino)-4-ethylpyridin-2-yl)thio)methyl)benzyl)acetamide]	–	–
< 316 nM	D (Category D: ≥6.5)	–	CCc1c(C#N)c(SC(C(N)=O)c2ccccc2)nc(N2CCC(NC)C2)c1C#N (centres unmarked) [Example 521, 2-((3,5-dicyano-4-ethyl-6-(3-(methylamino)pyrrolidin-1-yl)pyridin-2-yl)thio)-2-phenylacetamide]	–	–
< 316 nM	D (Category D: ≥6.5)	> 6.5	CCc1c(C#N)c(S[C@@H](C(N)=O)c2ccccc2)nc(N2CC[C@@H](N)[C@H](O)C2)c1C#N [Example 523, (R)-2-((6-((3R,4R)-4-amino-3-hydroxypiperidin-1-yl)-3,5-dicyano-4-ethylpyridin-2-yl)thio)-2-phenylacetamide 2,2,2-trifluoroacetate*]	79.4 nM	–
< 316 nM	D (Category D: ≥6.5)	–	CCc1c(C#N)c(SC(C(N)=O)c2ccccc2)nc(N2CC[C@@H](N)C2)c1C#N (stereo partly drawn) [Example 524, 2-((6-((R)-3-aminopyrrolidin-1-yl)-3,5-dicyano-4-ethylpyridin-2-yl)thio)-2-phenylacetamide]	–	–
< 316 nM	D (Category D: ≥6.5)	–	CCc1c(C#N)c(SC(C(N)=O)c2ccccc2)nc(N2CCC(CN)C2)c1C#N (centres unmarked) [Example 525, 2-((6-(3-(aminomethyl)pyrrolidin-1-yl)-3,5-dicyano-4-ethylpyridin-2-yl)thio)-2-phenylacetamide]	–	–
< 316 nM	–	–	CCc1c(C#N)c(SC(C(N)=O)c2ccc(F)cc2)nc(N2CCC(NC)CC2)c1C#N (centres unmarked) [Example 526, 2-((3,5-dicyano-4-ethyl-6-(4-(methylamino)piperidin-1-yl)pyridin-2-yl)thio)-2-(4-fluorophenyl)acetamide]	–	< 316 nM
< 316 nM	D (Category D: ≥6.5)	–	CCc1c(C#N)c(SC(C(N)=O)c2ccccc2)nc(N2CCC(NC3CC3)C(F)C2)c1C#N (centres unmarked) [Example 527, 2-((3,5-dicyano-6-(4-(cyclopropylamino)-3-fluoropiperidin-1-yl)-4-ethylpyridin-2-yl)thio)-2-phenylacetamide]	–	–
< 316 nM	D (Category D: ≥6.5)	–	CCc1c(C#N)c(SC(C(N)=O)c2ccccc2)nc(N2CC[C@H](N)C2)c1C#N (stereo partly drawn) [Example 528, 2-((6-((S)-3-aminopyrrolidin-1-yl)-3,5-dicyano-4-ethylpyridin-2-yl)thio)-2-phenylacetamide]	–	–
316 to 1000 nM	D (Category D: ≥6.5)	–	CCc1c(C#N)c(SC(C(N)=O)c2ccccc2)nc(N(C)CCN2CC[C@@H](N)C2)c1C#N (stereo partly drawn) [Example 529, 2-((6-((2-((R)-3-aminopyrrolidin-1-yl)ethyl)(methyl)amino)-3,5-dicyano-4-ethylpyridin-2-yl)thio)-2-phenylacetamide]	–	–
1000 to 31600 nM	D (Category D: ≥6.5)	–	CCc1c(C#N)c(SC(C(N)=O)c2ccc(F)cc2)nc(N2CC[C@@H](N(C)C)C2)c1C#N (stereo partly drawn) [Example 530, 2-((3,5-dicyano-6-((R)-3-(dimethylamino)pyrrolidin-1-yl)-4-ethylpyridin-2-yl)thio)-2-(4-fluorophenyl)acetamide]	–	–
< 316 nM	D (Category D: ≥6.5)	–	CCc1c(C#N)c(SC(C(N)=O)c2ccc(C(F)(F)F)cc2)nc(N2CCC(NCC(C)(C)C)CC2)c1C#N (centres unmarked) [Example 532, 2-((3,5-dicyano-4-ethyl-6-(4-(neopentylamino)piperidin-1-yl)pyridin-2-yl)thio)-2-(4-(trifluoromethyl)phenyl)acetamide]	–	–
< 316 nM	D (Category D: ≥6.5)	–	CCc1c(C#N)c(S[C@@H](C(N)=O)c2ccccc2)nc(N2CC[C@@H](NC(=O)OC(C)(C)C)[C@@H](O)C2)c1C#N [Example 533, tert-butyl ((3S,4R)-1-(6-(((R)-2-amino-2-oxo-1-phenylethyl)thio)-3,5-dicyano-4-ethylpyridin-2-yl)-3-hydroxypiperidin-4-yl)carbamate]	–	–
316 to 1000 nM	D (Category D: ≥6.5)	–	CCc1c(C#N)c(SC(C(N)=O)c2ccccc2)nc(N(C)CCN2CC[C@H](N)C2)c1C#N (stereo partly drawn) [Example 535, 2-((6-((2-((S)-3-aminopyrrolidin-1-yl)ethyl)(methyl)amino)-3,5-dicyano-4-ethylpyridin-2-yl)thio)-2-phenylacetamide]	–	–
316 to 1000 nM	D (Category D: ≥6.5)	–	CCc1c(C#N)c(SC(C(N)=O)c2ccccc2)nc(N2CC[C@@H](N(C)C)C2)c1C#N (stereo partly drawn) [Example 536, 2-((3,5-dicyano-6-((R)-3-(dimethylamino)pyrrolidin-1-yl)-4-ethylpyridin-2-yl)thio)-2-phenylacetamide]	–	–
316 to 1000 nM	D (Category D: ≥6.5)	–	CCc1c(C#N)c(S[C@@H](C(N)=O)c2ccccc2)nc(N2CC[C@H](NC(=O)OC(C)(C)C)[C@H](O)C2)c1C#N [Example 537, tert-butyl ((3R,4S)-1-(6-(((R)-2-amino-2-oxo-1-phenylethyl)thio)-3,5-dicyano-4-ethylpyridin-2-yl)-3-hydroxypiperidin-4-yl)carbamate]	–	–
1000 to 31600 nM	D (Category D: ≥6.5)	–	CCc1c(C#N)c(SC(C(N)=O)c2ccccc2)nc(N2CC[C@H](N(C)C)C2)c1C#N (stereo partly drawn) [Example 539, 2-((3,5-dicyano-6-((S)-3-(dimethylamino)pyrrolidin-1-yl)-4-ethylpyridin-2-yl)thio)-2-phenylacetamide]	–	–
< 316 nM	D (Category D: ≥6.5)	–	CCc1c(C#N)c(SC(C(N)=O)c2ccccc2)nc(N2CC[C@H](NCC(C)(C)O)C2)c1C#N (stereo partly drawn) [Example 541, 2-((3,5-dicyano-4-ethyl-6-((S)-3-((2-hydroxy-2-methylpropyl)amino)pyrrolidin-1-yl)pyridin-2-yl)thio)-2-phenylacetamide]	–	–
316 to 1000 nM	D (Category D: ≥6.5)	–	CCc1c(C#N)c(S[C@@H](C(N)=O)c2ccccc2)nc(N2CC[C@@H](NC(=O)OC(C)(C)C)[C@H](O)C2)c1C#N [Example 542, tert-butyl((3R,4R)-1-(6-(((R)-2-amino-2-oxo-1-phenylethyl)thio)-3,5-dicyano-4-ethylpyridin-2-yl)-3-hydroxypiperidin-4-yl)carbamate*]	–	–
> 31600 nM	D (Category D: ≥6.5)	–	CCc1c(C#N)c(SCc2ccc(C(=O)Nc3cn[nH]c3)cc2)nc(N2CCCN(C)CC2)c1C#N [Example 543, 4-(((3,5-dicyano-4-ethyl-6-(4-methyl-1,4-diazepan-1-yl)pyridin-2-yl)thio)methyl)-N-(1H-pyrazol-4-yl)benzamide]	–	–

SMILES	EC50 [1]	DNMT1 BioChemical (pIC50 category) (DNMT1; [2])	average pIC50 against DNMT1 (DNMT1; breaklight assay and/or SPA assay, repeated experimental runs)	IC50 (DNMT1; [3])	IC50 (DNMT1; [4])
CCc1c(C#N)c(S[C@@H](C(N)=O)c2ccccc2)nc(N2CC[C@@H](N)[C@H](F)C2)c1C#N [Example 518, (R)-2-((6-((3R,4R)-4-amino-3-fluoropiperidin-1-yl)-3,5-dicyano-4-ethylpyridin-2-yl)thio)-2-phenylacetamide, Trifluoroacetic acid salt]	< 316 nM	D (Category D: ≥6.5)	–	–	–
CCc1c(C#N)c(S[C@@H](C(N)=O)c2ccccc2)nc(N2CC[C@H](N)[C@@H](F)C2)c1C#N [Example 519, (R)-2-((6-((3S,4S)-4-amino-3-fluoropiperidin-1-yl)-3,5-dicyano-4-ethylpyridin-2-yl)thio)-2-phenylacetamide, Trifluoroacetic acid salt]	< 316 nM	D (Category D: ≥6.5)	–	–	–
CCc1c(C#N)c(SC(C(N)=O)c2ccc(F)cc2)nc(N2CCC(N)CC2)c1C#N (centres unmarked) [Example 522, 2-((6-(4-aminopiperidin-1-yl)-3,5-dicyano-4-ethylpyridin-2-yl)thio)-2-(4-fluorophenyl)acetamide hydrochloride]	< 316 nM	D (Category D: ≥6.5)	–	–	–
CCc1c(C#N)c(S[C@H](C(N)=O)c2ccccc2)nc(N2CC[C@@H](N)[C@@H](F)C2)c1C#N [Example 531, (S)-2-((6-((3S,4R)-4-amino-3-fluoropiperidin-1-yl)-3,5-dicyano-4-ethylpyridin-2-yl)thio)-2-phenylacetamide • (0.67)2,2,2-trifluoroacetate • (0.33)methanesulfonate]	< 316 nM	–	–	≥ 1000 nM and 1580 nM	1000 to 31600 nM
CCc1c(C#N)c(S[C@H](C(N)=O)c2ccccc2)nc(N2CC[C@H](N)[C@H](F)C2)c1C#N [Example 540, (S)-2-((6-((3R,4S)-4-amino-3-fluoropiperidin-1-yl)-3,5-dicyano-4-ethylpyridin-2-yl)thio)-2-phenylacetamide 2,2,2-trifluoroacetate]	< 316 nM	–	–	≥ 1000 nM and 3160 nM	1000 to 31600 nM
